# Measurements reported in ChEMBL document CHEMBL1151023, “1,1-Dicyano-2-substituted ethylenes: A new class of glucose uptake inhibitors in antifilarial chemotherapy” (1997).
# Experiments:
# Format in all cases: functional
# [1] = tested on: Acanthocheilonema viteae; experiment: Effect of compound on glucose uptake in Acanthocheilonema viteae at 10 uM concentration (p<0.05)
# [2] = tested on: Mastomys coucha; experiment: Tested for in vivo antifilarial activity against Acanthocheilonema viteae microfilariae infection in Mastomys coucha at 50 mg/kgx 5 days after ip administration, expressed as % reduction in parasite load; conditions: dose 50 mg/kg; route intraperitoneal
# [3] = tested on: Mastomys coucha; experiment: Tested for in vivo antifilarial activity against Acanthocheilonema viteae macrofilariae infection in Mastomys coucha at 50 mg/kgx 5 days after ip administration, expressed as % reduction in parasite load; conditions: dose 50 mg/kg; route intraperitoneal
# [4] = tested on: Acanthocheilonema viteae; experiment: Effect of compound on lactate produced in Acanthocheilonema viteae at 10 uM concentration (p>0.05)
# [5] = tested on: Acanthocheilonema viteae; experiment: Effect of compound on ATP content in Acanthocheilonema viteae at 10 uM concentration (p>0.05)
# [6] = tested on: Acanthocheilonema viteae; experiment: Effect of compound on ATP content in Acanthocheilonema viteae at 10 uM concentration (p<0.005)
# [7] = tested on: Acanthocheilonema viteae; experiment: Effect of compound on lactate produced in Acanthocheilonema viteae at 10 uM concentration(p<0.005)
# [8] = tested on: Acanthocheilonema viteae; experiment: Effect of compound on glucose uptake in Acanthocheilonema viteae at 10 uM concentration(p<0.005)
# [9] = tested on: Acanthocheilonema viteae; experiment: Effect of compound on glucose uptake in Acanthocheilonema viteae at 10 uM concentration (p<0.005)
# [10] = tested on: Acanthocheilonema viteae; experiment: Effect of compound on lactate produced in Acanthocheilonema viteae at 10 uM concentration (p<0.005)
# [11] = tested on: Mastomys coucha; experiment: Tested for in vivo antifilarial activity against Litomosoides carinii macrofilariae infection in Mastomys coucha at 30 mg/kgx 5 days after ip administration, expressed as % reduction in parasite load with 30% sterilization of female worms; conditions: dose 30 mg/kg; route intraperitoneal
# [12] = tested on: Mastomys coucha; experiment: Tested for in vivo antifilarial activity against Litomosoides carinii microfilariae infection in Mastomys coucha at 30 mg/kgx 5 days after ip administration, expressed as % reduction in parasite load with 30% sterilization of female worms; conditions: dose 30 mg/kg; route intraperitoneal
# [13] = tested on: Acanthocheilonema viteae; experiment: Effect of compound on lactate produced in Acanthocheilonema viteae at 10 uM concentration (p<0.05)
# [14] = tested on: Acanthocheilonema viteae; experiment: Effect of compound on glucose uptake in Acanthocheilonema viteae at 10 uM concentration (p>0.05)
# [15] = tested on: Mastomys coucha; experiment: Tested for in vivo antifilarial activity against A. viteae microfilariae infection in Mastomys coucha at 50 mg/kgx 5 days after ip administration, expressed as % reduction in parasite load; conditions: dose 50 mg/kg; route intraperitoneal
# [16] = tested on: Acanthocheilonema viteae; experiment: Effect of compound on lactate produced in Acanthocheilonema viteae at 10 uM concentration(p>0.05)
# [17] = tested on: Mastomys coucha; experiment: Tested for in vivo antifilarial activity against Litomosoides carinii microfilariae infection in Mastomys coucha at 6 mg/kgx 5 days after ip administration, expressed as % reduction in parasite load; conditions: dose 6 mg/kg; route intraperitoneal
# [18] = tested on: Mastomys coucha; experiment: Tested for in vivo antifilarial activity against Litomosoides carinii macrofilariae infection in Mastomys coucha at 350 mg/kgx 5 days after ip administration, expressed as % reduction in parasite load; conditions: dose 350 mg/kg; route intraperitoneal
# [19] = tested on: Mastomys coucha; experiment: Tested for in vivo antifilarial activity against Litomosoides carinii microfilariae infection in Mastomys coucha at 350 mg/kgx 5 days after ip administration, expressed as % reduction in parasite load; conditions: dose 350 mg/kg; route intraperitoneal
# [20] = tested on: Mastomys coucha; experiment: Tested for in vivo antifilarial activity against Litomosoides carinii macrofilariae infection in Mastomys coucha at 6 mg/kgx 5 days after ip administration, expressed as % reduction in parasite load; conditions: dose 6 mg/kg; route intraperitoneal
SMILES,Reduction [2],Reduction [3],Lactate produced [4],ATP content [5],ATP content [6],Glucose uptake [14],further results
N#CC(C#N)=CNCCO,82%,0%,343 nM/h (mg of worm),47.8 pM (mg of protein)-1,–,–,Glucose uptake [1]: 164 nM/h (mg of worm)
N#CC(C#N)=CNc1ccc(F)cc1,91%,0%,–,–,16.9 pM (mg of protein)-1,–,Lactate produced [7]: 222 nM/h (mg of worm); Glucose uptake [8]: 56 nM/h (mg of worm)
N#CC(C#N)=CN1CCN(c2ccccn2)CC1,–,–,–,–,37.1 pM (mg of protein)-1,–,Glucose uptake [9]: 105 nM/h (mg of worm); Lactate produced [10]: 157 nM/h (mg of worm); Reduction [11]: 60%; Reduction [12]: 60%
N#CC(C#N)=CN1CCN(C=C(C#N)C#N)CC1,0%,81%,–,–,25.7 pM (mg of protein)-1,–,Lactate produced [13]: 258 nM/h (mg of worm); Glucose uptake [1]: 327 nM/h (mg of worm)
N#CC(C#N)=CN(CCO)CCO,76%,0%,405 nM/h (mg of worm),49.3 pM (mg of protein)-1,–,204 nM/h (mg of worm),–
N#CC(C#N)=CNc1ccccc1,–,0%,443 nM/h (mg of worm),53.5 pM (mg of protein)-1,–,189 nM/h (mg of worm),Reduction [15]: 47%
CCN(CC)C(=O)N1CCN(C)CC1.O=C(O)CC(O)(CC(=O)O)C(=O)O [DIETHYLCARBAMAZINE CITRATE],–,–,–,55.6 pM (mg of protein)-1,–,256 nM/h (mg of worm),Lactate produced [16]: 461 nM/h (mg of worm); Reduction [17]: 98%; Reduction [18]: 0%; Reduction [19]: 90%; Reduction [20]: 0%
